Source: patent publication US10611777B2, “Imidazopyridazine compounds and their use” (HUTCHISON MEDIPHARMA LIMITED, priority 2014, dated 2020)
≈ marks a conversion by molar mass, not a printed value. Where two headings read alike, the source gives them in different places.

Experiments:
[1] = target: PI3K-α (p110α/p85α) (Homo sapiens (Human), UniProt P42336); test: Fluorescent determination of PI3K enzyme activity (Transcreener KINASE Assay), PI3K-α; format: biochemical; conditions: inhibition rate at 1 μM
Chain of PI3K-α (p110α/p85α) (P42336 whole entry, species assumed): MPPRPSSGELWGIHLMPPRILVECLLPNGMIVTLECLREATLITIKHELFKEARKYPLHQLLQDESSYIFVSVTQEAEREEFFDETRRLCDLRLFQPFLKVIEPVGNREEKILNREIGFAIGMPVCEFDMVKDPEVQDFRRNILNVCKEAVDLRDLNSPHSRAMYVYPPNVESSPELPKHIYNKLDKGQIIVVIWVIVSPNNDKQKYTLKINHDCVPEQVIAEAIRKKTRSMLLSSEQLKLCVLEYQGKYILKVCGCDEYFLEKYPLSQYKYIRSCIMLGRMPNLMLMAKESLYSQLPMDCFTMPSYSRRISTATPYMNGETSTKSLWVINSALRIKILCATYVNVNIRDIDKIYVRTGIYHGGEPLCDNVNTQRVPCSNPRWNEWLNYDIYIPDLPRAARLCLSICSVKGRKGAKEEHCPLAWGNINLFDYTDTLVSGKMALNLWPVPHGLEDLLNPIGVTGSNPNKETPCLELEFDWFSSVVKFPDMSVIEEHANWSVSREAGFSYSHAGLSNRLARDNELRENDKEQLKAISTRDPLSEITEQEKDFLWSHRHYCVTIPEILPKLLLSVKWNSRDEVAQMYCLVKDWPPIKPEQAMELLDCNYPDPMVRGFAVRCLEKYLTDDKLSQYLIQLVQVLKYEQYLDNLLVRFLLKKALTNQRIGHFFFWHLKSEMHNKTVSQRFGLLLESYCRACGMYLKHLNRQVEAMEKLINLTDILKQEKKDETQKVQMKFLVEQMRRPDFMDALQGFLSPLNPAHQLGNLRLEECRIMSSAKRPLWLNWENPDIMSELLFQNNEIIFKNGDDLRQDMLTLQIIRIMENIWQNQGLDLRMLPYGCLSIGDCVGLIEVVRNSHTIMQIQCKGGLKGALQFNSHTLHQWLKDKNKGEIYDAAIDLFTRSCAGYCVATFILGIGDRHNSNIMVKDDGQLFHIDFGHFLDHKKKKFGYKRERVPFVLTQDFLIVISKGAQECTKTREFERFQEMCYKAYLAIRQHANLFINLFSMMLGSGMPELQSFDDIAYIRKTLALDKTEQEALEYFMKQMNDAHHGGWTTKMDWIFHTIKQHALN
Chain of PI3K-α (p110α/p85α) (P27986 whole entry partner, species assumed): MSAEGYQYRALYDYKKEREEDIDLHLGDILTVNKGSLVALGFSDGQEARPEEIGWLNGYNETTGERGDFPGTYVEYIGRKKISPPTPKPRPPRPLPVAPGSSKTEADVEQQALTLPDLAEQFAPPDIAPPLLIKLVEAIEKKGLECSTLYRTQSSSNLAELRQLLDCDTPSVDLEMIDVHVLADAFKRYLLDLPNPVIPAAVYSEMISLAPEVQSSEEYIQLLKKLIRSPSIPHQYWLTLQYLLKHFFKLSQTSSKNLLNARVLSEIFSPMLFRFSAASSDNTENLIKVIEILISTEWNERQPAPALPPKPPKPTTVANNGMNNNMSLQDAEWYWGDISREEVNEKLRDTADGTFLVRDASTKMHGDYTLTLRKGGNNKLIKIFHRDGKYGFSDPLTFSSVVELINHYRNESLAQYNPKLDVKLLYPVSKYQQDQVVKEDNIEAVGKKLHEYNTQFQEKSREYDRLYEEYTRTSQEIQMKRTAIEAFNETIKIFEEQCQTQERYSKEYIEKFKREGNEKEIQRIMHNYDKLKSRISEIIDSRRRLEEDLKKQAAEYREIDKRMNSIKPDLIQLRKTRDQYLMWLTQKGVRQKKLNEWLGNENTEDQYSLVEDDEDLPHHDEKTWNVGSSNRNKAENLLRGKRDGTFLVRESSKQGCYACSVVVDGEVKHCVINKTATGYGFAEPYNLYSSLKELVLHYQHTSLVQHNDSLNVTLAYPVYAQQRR
Procedure: Inhibition rates were calculated as follow: IH %=(ADP amount under 2% DMSO well−ADP amount under test compound well)/ADP amount under 2% DMSO well×100%.

[2] = target: PI3K-β (p110β/p85α) (Homo sapiens (Human), UniProt P42338); test: Fluorescent determination of PI3K enzyme activity (Transcreener KINASE Assay), PI3K-β; format: biochemical; conditions: inhibition rate at 1 μM;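 note: Far-red fluorescence polarization immunoassay detecting ADP produced by the kinase, 80 min enzyme reaction at room temperature, inhibition relative to ADP formed in 2% DMSO control wells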
Chain of PI3K-β (p110β/p85α) (P42338 whole entry, species assumed): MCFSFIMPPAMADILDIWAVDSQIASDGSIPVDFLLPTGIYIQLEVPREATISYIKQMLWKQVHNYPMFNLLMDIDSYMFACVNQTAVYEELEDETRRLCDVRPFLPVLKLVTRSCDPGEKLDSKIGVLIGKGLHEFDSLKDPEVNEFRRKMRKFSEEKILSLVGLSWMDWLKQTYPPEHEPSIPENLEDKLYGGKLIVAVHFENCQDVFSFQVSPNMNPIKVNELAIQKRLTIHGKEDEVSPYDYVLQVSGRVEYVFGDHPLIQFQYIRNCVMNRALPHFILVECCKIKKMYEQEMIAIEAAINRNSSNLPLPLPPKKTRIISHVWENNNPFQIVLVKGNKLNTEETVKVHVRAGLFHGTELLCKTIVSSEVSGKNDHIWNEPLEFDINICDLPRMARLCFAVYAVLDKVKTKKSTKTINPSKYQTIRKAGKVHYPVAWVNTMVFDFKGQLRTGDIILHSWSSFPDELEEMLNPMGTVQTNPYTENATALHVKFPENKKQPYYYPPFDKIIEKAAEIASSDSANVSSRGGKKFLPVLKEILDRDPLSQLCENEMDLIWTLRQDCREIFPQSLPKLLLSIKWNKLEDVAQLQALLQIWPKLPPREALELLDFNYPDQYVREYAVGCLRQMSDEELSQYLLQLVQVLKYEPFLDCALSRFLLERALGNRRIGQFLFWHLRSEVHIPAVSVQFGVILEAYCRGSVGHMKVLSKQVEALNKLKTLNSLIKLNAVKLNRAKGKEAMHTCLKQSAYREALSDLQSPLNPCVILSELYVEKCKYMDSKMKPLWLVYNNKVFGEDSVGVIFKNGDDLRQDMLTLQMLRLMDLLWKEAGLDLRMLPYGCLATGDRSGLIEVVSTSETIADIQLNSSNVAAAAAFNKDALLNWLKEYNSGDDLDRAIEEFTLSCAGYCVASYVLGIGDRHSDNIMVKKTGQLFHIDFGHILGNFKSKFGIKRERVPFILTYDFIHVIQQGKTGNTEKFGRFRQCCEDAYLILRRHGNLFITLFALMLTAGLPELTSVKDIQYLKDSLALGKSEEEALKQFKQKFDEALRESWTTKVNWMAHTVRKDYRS
Chain of PI3K-β (p110β/p85α) (P27986 whole entry partner, species assumed): as the sequence (P27986 whole entry partner, species assumed) above
Procedure: (§1) PI3K kinases including p110α/p85α and p110γ were purchased from Invitrogen, p110δ/p85α and p110β/p85α were from Millipore.
(§2) It is a universal, homogenous, high throughput screening (HTS) technology using a far-red, competitive fluorescence polarization immunoassay based on the defection of ADP to monitor the activity of enzymes that catalyze group transfer reactions. […] The reaction mixture was added into desired wells of a 96-well plate. The plate was sealed and incubated for 80 min at room temperature. • 2) Next, 25 uL ADP detection mix was added into each well. The plate was sealed again and incubated for 60 min at room temperature. Then fluorescence polarization was measured by Tecan Infinite F500 Reader.
(§3) Data was analyzed and IC50 values were generated using the add-in software for Microsoft Excel, Xlfit™ (version 5.3).

[3] = target: PI3K-δ (p110δ/p85α) (Homo sapiens (Human), UniProt O00329); test: Fluorescent determination of PI3K enzyme activity (Transcreener KINASE Assay), PI3K-δ; format: biochemical; conditions: for PI3K-δ IH%: inhibition rate at 1 μM
Chain of PI3K-δ (p110δ/p85α) (O00329 whole entry, species assumed): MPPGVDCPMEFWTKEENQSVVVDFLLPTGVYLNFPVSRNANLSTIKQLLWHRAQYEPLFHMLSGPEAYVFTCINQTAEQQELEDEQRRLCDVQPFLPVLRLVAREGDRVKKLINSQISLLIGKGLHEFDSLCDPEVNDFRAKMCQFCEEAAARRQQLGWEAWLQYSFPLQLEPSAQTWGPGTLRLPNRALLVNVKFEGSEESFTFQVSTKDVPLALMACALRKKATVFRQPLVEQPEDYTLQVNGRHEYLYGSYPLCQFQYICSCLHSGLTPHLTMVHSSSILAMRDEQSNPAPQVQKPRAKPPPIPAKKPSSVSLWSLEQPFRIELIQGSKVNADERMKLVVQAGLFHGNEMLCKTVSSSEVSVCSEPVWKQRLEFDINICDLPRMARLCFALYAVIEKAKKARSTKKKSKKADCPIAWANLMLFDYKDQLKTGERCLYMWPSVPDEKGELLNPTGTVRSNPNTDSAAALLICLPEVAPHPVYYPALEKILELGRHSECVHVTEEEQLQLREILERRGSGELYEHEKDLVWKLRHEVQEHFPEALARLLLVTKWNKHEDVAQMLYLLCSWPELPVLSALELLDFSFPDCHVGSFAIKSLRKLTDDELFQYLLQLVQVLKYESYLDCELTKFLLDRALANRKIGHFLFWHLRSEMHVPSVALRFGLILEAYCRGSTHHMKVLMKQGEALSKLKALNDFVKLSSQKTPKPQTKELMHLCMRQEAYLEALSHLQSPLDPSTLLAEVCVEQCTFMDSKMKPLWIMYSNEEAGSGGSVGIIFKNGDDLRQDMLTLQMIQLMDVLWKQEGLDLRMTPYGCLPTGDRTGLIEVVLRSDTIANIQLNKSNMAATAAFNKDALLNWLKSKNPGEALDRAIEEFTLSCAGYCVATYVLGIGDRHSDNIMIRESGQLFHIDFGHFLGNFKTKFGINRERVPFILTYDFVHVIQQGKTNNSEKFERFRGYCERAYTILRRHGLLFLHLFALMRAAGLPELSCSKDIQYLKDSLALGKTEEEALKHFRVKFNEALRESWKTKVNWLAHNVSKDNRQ
Chain of PI3K-δ (p110δ/p85α) (P27986 whole entry partner, species assumed): as the sequence (P27986 whole entry partner, species assumed) above
Procedure: as §1, §2, §3

[4] = target: PI3K-γ (p110γ) (Homo sapiens (Human), UniProt P48736); test: Fluorescent determination of PI3K enzyme activity (Transcreener KINASE Assay), PI3K-γ; format: biochemical; conditions: for PI3K-γ IH%: inhibition rate at 1 μM;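 for all read-outs here: p110γ enzyme reaction for 80 min at room temperature, ADP formed measured by far-red competitive fluorescence polarization immunoassay, inhibition relative to wells with 2% DMSO only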
Chain of PI3K-γ (p110γ) (P48736 whole entry, species assumed): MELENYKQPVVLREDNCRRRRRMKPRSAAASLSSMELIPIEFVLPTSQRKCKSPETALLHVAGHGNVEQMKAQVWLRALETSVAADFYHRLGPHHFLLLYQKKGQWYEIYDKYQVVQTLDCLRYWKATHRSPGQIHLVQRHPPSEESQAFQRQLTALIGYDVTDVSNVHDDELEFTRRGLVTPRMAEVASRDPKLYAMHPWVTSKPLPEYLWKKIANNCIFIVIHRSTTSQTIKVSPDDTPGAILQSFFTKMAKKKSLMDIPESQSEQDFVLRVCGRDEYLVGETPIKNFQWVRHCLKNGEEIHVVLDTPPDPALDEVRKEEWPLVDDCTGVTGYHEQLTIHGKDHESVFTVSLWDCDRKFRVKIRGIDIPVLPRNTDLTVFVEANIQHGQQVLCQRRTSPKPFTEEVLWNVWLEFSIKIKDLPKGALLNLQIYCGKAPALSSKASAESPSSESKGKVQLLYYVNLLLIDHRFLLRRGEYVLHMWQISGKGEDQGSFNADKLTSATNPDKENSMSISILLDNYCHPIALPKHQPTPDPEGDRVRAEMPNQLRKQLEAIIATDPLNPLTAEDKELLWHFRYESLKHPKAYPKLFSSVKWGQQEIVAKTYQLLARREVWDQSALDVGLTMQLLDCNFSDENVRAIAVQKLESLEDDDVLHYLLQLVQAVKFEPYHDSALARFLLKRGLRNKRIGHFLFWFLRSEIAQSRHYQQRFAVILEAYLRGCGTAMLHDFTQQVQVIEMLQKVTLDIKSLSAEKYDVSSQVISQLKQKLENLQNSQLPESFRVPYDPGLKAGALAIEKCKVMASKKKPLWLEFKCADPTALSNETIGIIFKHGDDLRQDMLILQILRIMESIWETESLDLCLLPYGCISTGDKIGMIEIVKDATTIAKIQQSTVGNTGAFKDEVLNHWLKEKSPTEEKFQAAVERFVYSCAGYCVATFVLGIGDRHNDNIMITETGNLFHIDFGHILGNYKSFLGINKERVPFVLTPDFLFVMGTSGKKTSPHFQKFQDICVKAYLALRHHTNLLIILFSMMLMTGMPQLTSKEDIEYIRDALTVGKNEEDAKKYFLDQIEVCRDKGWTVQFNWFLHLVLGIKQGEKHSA
Procedure: as §1, §2, §3

[5] = test system: AKT phosphorylation (p-AKT Ser473) in Ramos cells; test: Inhibition of AKT phosphorylation in Ramos cell line; format: cell-based; conditions: anti-IgM stimulated
Procedure: 6×10^4/mL Ramos cells (ATCC, CRL-1596; cells were cultured in RPMI1640 media with 10% FBS) were seeded into a 96-well plate (Bookman Dickinson, No. 356692) at 80 uL/well, 4,800 cells/well. After incubations for 3 hr at 37° C. under 5% CO2, Ramos cells were treated with 10 uL/well various concentrations of test compound (final concentrations of the test compound: 1 uM, 0.3 uM, 0.1 uM, 0.037 uM, 0.012 uM, 0.0041 uM, 0.0014 uM and 0.0005 uM) or 0.3% DMSO for 30 min, and then were stimulated with 10 uL/well 1 ug/ml Anti-IgM (Jackson Immunoresearch, 709-006-073) for 15-20 min. • 1) Cells were fixed with 100 μL of 4% pre-warmed Paraformaldehyde (2% final concentration), and incubated for 45 min at room temperature. • 2) The paraformaldehyde solution was removed. 100 μL of ice-cold methanol was added into each well and the plate was left at 4° C. for 30 min. • 3) The cells were washed for three times with 160 μPBS. • 4) 40 μL 1:350 dilution of Rabbit anti-p-AKT(Ser^473) antibody (Cell Signaling Technology, 4060 L) in antibody dilution buffer (1% BSA, in PBS) were added into each well. […]
as §3

[6] = test system: SU-DHL-6 cell line; test: In vitro cell proliferation assay in SU-DHL-6 cell line; format: cell-based; conditions: SU-DHL-6, 72 h, CCK-8
Procedure: Growth inhibition assays were carried out using 10% FBS supplemented media. Cells were seeded at a concentration of 15000 cells/well in a 96-well plate. Test compound dilution at different concentrations (final concentrations of the test compound: 1 uM, 0.3 uM, 0.1 uM, 0.037 uM, 0.012 uM, 0.0041 uM, 0.0014 uM and 0.0005 uM) were added after 24 hours. Growth was assessed using Cell Counting Kit-8 (CCK-8) (Dojindo, Cat # CK04) after the test compound were incubated for 72 h. Absorbance was read at the wave length 450 nm on Multiskan MK3 machine (Thermo).
as §3

[7] = test system: anti-IgD induced B cell activation; test: Anti-IgD antibody induced B cells activation in rat whole blood (ex vivo after oral dosing)
Procedure: Activation of B cells (B220+) in rat whole blood with anti-IgD antibody leading to activation via Ig receptors is known to involve PI3K pathways and sensitive to modulation by PI3Kδ inhibitors. A pharmacodynamics assay was developed to assess activity of PI3Kδ inhibitors ex vivo following oral administration of inhibitors to rats.
Wistar rats (female, 6-8 weeks old) were used in the experiments. The dose dependency, time course study and PKPD relationship of compound 4 were conducted in normal Wistar rats. […] The control group (6 rats) was treated with the vehicle alone. […] The heparin anti-coagulated blood was mixed with anti-rat-IgD, then was incubated at 37° C. under 5% CO2 overnight. Fluorescence signal for CD86 on B220 (B cells) positive cells was detected using a flow cytometer (BD FACSCalibur, BD Biosciences) and data were analyzed by CellQuest software. Plasma was collected to measure compound 4 levels.

[8] = test system: Wistar rats with established type II collagen-induced arthritis; test: Rat collagen II induced arthritis (CIA) model; format: in vivo
Procedure: Rat collagen induced arthritis is an experimental model of polyarthritis that has been widely used for nonclinical testing of numerous anti-arthritic agents that are either under nonclinical or clinical investigation or are currently used as therapeutics in this disease.
Wistar rats were immunized intradermally with 200 μg bovine collagen II emulsified in Freund's incomplete adjuvant (IFA, Sigma, US) on day 0 and day 7. The hind paw volumes were measured before and after the immunization. […] The naive group was not administered. YiSaiPu (10 mg/kg), a human tumor necrosis factor receptor p75 Fc fusion protein, was administered with intraperitoneal injection on days 10, 12 and 14 as a positive control. The study was terminated on day 18.

[9] = test system: PI3Kδ signaling in basophils from human whole blood; test: Inhibition of PI3Kδ signaling in basophils from human whole blood; format: cell-based; conditions: anti-IgE stimulated, CD63
Procedure: • 1) Heparinized human whole blood was mixed and pipetted into the 96 well v-bottom plate, 100 μL per well. • 2) 10 μL of stimulation buffer (1 mg/mL stock, final concentration of Recombinant human IL-3; 20 ng/mL) was added to the whole blood samples of each well and vortex gently. The samples were incubated for 20 min at 37° C. • 3) 10 uL/well of test compound dilution (final concentrations of the test compound in well: 1 uM, 0.3 uM, 0.1 uM, 0.037 uM, 0.012 uM, 0.0041 uM, 0.0014 uM and 0.0005 uM) or vehicle (0.2% DMSO) was added into each well of the plate and the plate was incubated for 1.5 h at 37° C. • 4) 100 μL of the Goat anti-human IgE (1 mg/mL stock, final concentration of IgE: 0.31 ug/mL) working solution was added into each well of the plate. Vortex all the wells once more and incubate for 20 min at 37° C. • 5) Labeling with staining antibody: Degranulation was stopped by incubating the samples on ice for 5 min. 6 μL of staining antibody mixture (anti-CD63-FITC and anti-IgE-PE) was added into each well. […] The plate was incubated in a covered ice bath until analysis. • 10) Flow cytometric analysis: Cells were analyzed by flow cytometry using the blue-green excitation light (488 nm argon-ion laser, FACSCalibur, CELLQuest software).
as §3

Compound	PI3K-β IH% [2] [%]	PI3K-δ IH% [3] [%]	PI3K-γ IH% [4] [%]	also measured
C[C@H](Nc1ncnc(N)c1-c1nn[nH]n1)c1cc2ncc(Cl)n2nc1-c1ccccc1 [Compound 21]	–	–	–	PI3K-α IH% [1]: 21.7%
CC[C@@H](Nc1ncnc(N)c1C#N)c1cc2ncc(Cl)n2nc1-c1ccccc1 [Compound 5, (R)-4-amino-6-((1-(3-chloro-6-phenylimidazo[1,2-b]pyridazin-7-yl)propyl)amino)pyrimidine-5-carbonitrile]	−10.7	47.3	–	–
CCC(Nc1ncnc2[nH]cnc12)c1cc2ncc(Cl)n2nc1-c1ccccc1 (stereo not drawn) [Compound 14]	3.2	51.0	22.5	–
C[C@H](Nc1ncnc(N)c1C#N)c1cc2ncc(Cl)n2nc1-c1ccccc1 [Compound 4, (S)-4-amino-6-((1-(3-chloro-6-phenylimidazo[1,2-b]pyridazin-7-yl)ethyl)amino)pyrimidine-5-carbonitrile]	–	–	–	EC50 ([7]; Rattus norvegicus, B-cell, po, at 2 hr post-dose, read-out: EC50 (corresponding plasma concentration)): 1.49 ng/mL (≈ 3.8 nM); anti-IgD induced B cell activation in rat whole blood, ex vivo ([7]; oral, dose range 0.01 to 3 mg/kg, p<0.01): inhibited anti-IgD induced B cell activation in rat whole blood, ex vivo, in a dose- and time-dependent manner; mean paw volume at the end of the treatment period compared to vehicle-treated diseased animals ([8]; PO QD days 10-16, p<0.01, all doses except lowest dose 0.03 mg/kg): significantly decreased; effects on the parameters associated with established type II collagen-induced arthritis ([8]; daily oral treatment): dose-dependent beneficial effects
C[C@@H](Nc1ncnc(N)c1C#N)c1cc2ncc(Cl)n2nc1-c1ccccn1 [Compound 7, (R)-4-amino-6-((1-(3-chloro-6-(pyridin-2-yl)imidazo[1,2-b]pyridazin-7-yl)ethyl)amino)pyrimidine-5-carbonitrile]	−2.7	12.5	61.1	–
C[C@H](Nc1ncnc(N)c1C#N)c1cc2ncc(Cl)n2nc1-c1ccc2c(c1)OCCO2 [Compound 70]	37.4	–	–	IC50 [3]: 22 nM; IC50 ([4]; read-out: PI3K-γ IC50): 1980 nM
CCC(Nc1ncnc2[nH]cnc12)c1cc2ncc(Cl)n2nc1-c1ccccc1F (single isomer, unassigned) [Compound 25]	–	–	–	IC50 [3]: 4 nM; IC50 [4]: 2590 nM
C[C@H](Nc1ncnc(N)c1C#N)c1cc2ncc(Cl)n2nc1-c1ccccn1 [Compound 8, (S)-4-amino-6-((1-(3-chloro-6-(pyridin-2-yl)imidazo[1,2-b]pyridazin-7-yl)ethyl)amino)pyrimidine-5-carbonitrile]	37.7	–	−2.3	–
CCC(Nc1ncnc2[nH]cnc12)c1cc2ncc(Cl)n2nc1-c1ccccc1F (stereo not drawn) [Compound 26]	−7.5	–	8	–
C[C@H](Nc1ncnc(N)c1C#N)c1cc2ncc(F)n2nc1-c1ccccc1 [Compound 78, (S)-4-amino-6-((1-(3-fluoro-6-phenylimidazo[1,2-b]pyridazin-7-yl)ethyl)amino)pyrimidine-5-carbonitrile]	50.1	–	–	IC50 ([5]; Homo sapiens): 7 nM; IC50 [9]: 10 nM; IC50 [3]: 1 nM
CCC(Nc1ncnc2[nH]cnc12)c1cc2ncc(Cl)n2nc1-c1ccccc1F (single isomer, unassigned) [Compound 26]	–	–	–	IC50 [3]: 839 nM

Second part, led by results:

PI3K-β IH% [2] [%]	PI3K-δ IH% [3] [%]	PI3K-γ IH% [4] [%]	Compound	also measured
−14.1	68.9	5.5	COc1cc(-c2c(N)ncnc2N[C@@H](C)c2cc3ncc(Cl)n3nc2-c2ccccc2)ccn1 [Compound 50]	–
54.9	48.9	−14.3	C[C@H](Nc1ncnc(N)c1C#N)c1cc2ncc(Cl)n2nc1-c1ccc2ccn(C)c2c1 [Compound 76]	–
−7.1	1.0	31.7	C[C@@H](Nc1ncnc(N)c1C#N)c1cc2ncc(Cl)n2nc1-c1ccc2scnc2c1 [Compound 75]	–
28.7	–	–	Cc1cnc2cc([C@H](C)Nc3ncnc4[nH]cnc34)c(-c3ccccc3)nn12 [Compound 23]	PI3K-α IH% [1]: 3.2%; IC50 [5]: 12 nM; IC50 [6]: 78 nM
−0.4	–	27.5	C[C@H](Nc1ncnc(N)c1-c1cccc(F)c1)c1cc2ncc(Cl)n2nc1-c1ccccc1 [Compound 37, (S)-N^4-(1-(3-chloro-6-phenylimidazo[1,2-b]pyridazin-7-yl)ethyl)-5-(3-fluorophenyl)pyrimidine-4,6-diamine]	–
9.0	21.0	1.0	C[C@H](Nc1ncnc(N)c1C(=O)N(C)C)c1cc2ncc(Cl)n2nc1-c1ccccc1 [Compound 56]	–
32.2	–	55.2	CC[C@H](Nc1ncnc2[nH]cnc12)c1cc2ncc(Cl)n2nc1-c1cccc(F)c1 [Compound 47]	–
76.7	–	–	Cc1cnc2cc([C@H](C)Nc3ncnc(N)c3C#N)c(-c3ccccc3)nn12 [Compound 22]	PI3K-α IH% [1]: 13.6%
60.8	–	62.8	C[C@H](Nc1ncnc(N)c1C#N)c1cc2ncc(Cl)n2nc1-c1ccncc1 [Compound 73]	–
3.7	8.3	−19.3	C[C@H](Nc1nc(N)ncc1C#N)c1cc2ncc(Cl)n2nc1-c1ccccc1 [Compound 34]	–
7.4	–	18.2	C[C@@H](c1cc2ncc(Cl)n2nc1-c1ccccc1)N(C)c1ncnc(N)c1C#N [Compound 42, (S)-4-amino-6-((1-(3-chloro-6-phenylimidazo[1,2-b]pyridazin-7-yl)ethyl)(methyl)amino)pyrimidine-5-carbonitrile]	–
11.1	39.8	18.8	CCC(Nc1ncnc(N)c1C#N)c1cc2ncc(Cl)n2nc1-c1ccccn1 (stereo not drawn) [Compound 28]	–
−4.4	–	28.1	COc1ccc(-c2c(N)ncnc2N[C@@H](C)c2cc3ncc(Cl)n3nc2-c2ccccc2)cn1 [Compound 39]	–
8.5	60.3	−4.7	C[C@H](Nc1nc(O)nc(N)c1C#N)c1cc2ncc(Cl)n2nc1-c1ccccc1 [Compound 55, (S)-4-amino-6-((1-(3-chloro-6-phenylimidazo[1,2-b]pyridazin-7-yl)ethyl)amino)-2-hydroxypyrimidine-5-carbonitrile]	–
43.8	–	56.2	C[C@H](Nc1ncnc(N)c1C#N)c1cc2ncc(Cl)n2nc1-c1cccc(C(C)(C)O)c1 (single isomer, unassigned) [Compound 79, (chiral)-4-amino-6-((1-(3-chloro-6-(3-(2-hydroxypropan-2-yl)phenyl)imidazo[1,2-b]pyridazin-7-yl)ethyl)amino)pyrimidine-5-carbonitrile]	–
